Test results: US20240415819A1, “MACROCYCLIC COMPOUNDS AS PROTEASOME SUBUNIT BETA TYPE-5 INHIBITORS” (Lead Discovery Center GmbH, priority 2021, published 2024)

How the values were obtained:
Karpas cells = experiment: Glo assay of Karpas cells (Table 3; ProteasomeGlo plating scheme); format: cell-based; settings: read-out: Pglo Karpas
Procedure, shortened: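 Compound treatment lasts 105 minutes at 37° C. under 5% CO2. Suc-LLVY-Glo substrate premixed with detection reagent (60 min at room temperature) is then added directly to the cells, and luminescence after 10-15 min in the dark gives the IC50 in nM.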

[1] = test system: B-cells isolated from PBMC's; experiment: Chymotrypsin-like ProteasomeGlo assay in B-cells isolated from PBMCs; format: cell-based, human; settings: Homo sapiens; B-cells isolated from PBMC's; read-out: Pglo B-Cell
Procedure, shortened: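 Human B-cells were negatively isolated from buffy-coat PBMCs by density gradient, RBC lysis and Miltenyi magnetic separation. Cells were plated and compounds added by acoustic transfer after 1:100 dilution, with DMSO controls and medium-only wells. Chymotrypsin-like proteasome activity was read by luminescent ProteasomeGlo to derive IC50.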

IC50 (Karpas cells): < 100 nM
SMILES: CCC(C(=O)N[C@H]1CC(=O)N2CCCC(CCOc3ccc(C)c(c3)CNC(=O)[C@H](CCc3ccccc3)NC1=O)C2)c1ccc(OC)c(OC)c1 (stereo partly drawn) [Compound 64, 2-(3,4-dimethoxyphenyl)-N-((9S,12S)-5^4-methyl-8,11,14-trioxo-9-phenethyl-4-oxa-7,10-diaza-1(3,1)-piperidina-5(1,3)-benzenacyclotetradecaphane-12-yl)butanamide]
IC50 [1]: < 100 nM
